Measured values as given in US20200017496A1 (priority 2017, published 2020).
“And” between values parts separate entries of the source, which are not always exact repeats. Identical values can stand only once. Like-named read-outs stand apart in the source and are kept apart here.

Tests used:
Type in all cases: cell-based
[1] = tested on: Serratia marcescens (SMA) isolates; experiment: MIC of compounds alone and combined with antibacterials, broth microdilution (CLSI)
Method: (§1) Method 2: MIC of Compounds Alone and Combined with Antibacterials Against Bacterial Isolates.
(§2) Compounds of the present invention were assessed against genotyped bacterial strains (Table 3, 4) alone or in combination with an antibacterial (Table 2). […] Log phase bacterial suspensions were adjusted to a final density of 5·10^5 CFU/mL in cation-adjusted Mueller-Hinton broth (ca-MHB; Becton-Dickinson and Company) and added to each well (98 μL). Microplates were incubated for 16-20 h at 35° C. in ambient air. The MIC of the compounds was defined as the lowest concentration of said compounds that prevented bacterial growth as read by visual inspection. The MIC of ATB at each compound concentration was defined as the lowest concentration of ATB that prevented bacterial growth as read by visual inspection.

[2] = tested on: Morganella morganii (MMO) isolates; experiment: as above
Method: as §1, §2

[3] = tested on: Citrobacter freundii (CFR) isolates; experiment: as above
Method: as §1, §2

[4] = tested on: Providencia rettgeri (PRE) isolates; experiment: as above
Method: as §1, §2

[5] = tested on: Proteus mirabilis (PMI) isolates; experiment: microbe, parasite or virus in culture; details: for MIC ATB in combination: AF1 @ 4 μg/mL
Summary of the method: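 Log-phase bacteria at a final 5·10^5 CFU/mL in cation-adjusted Mueller-Hinton broth were incubated 16-20 h at 35° C in ambient air with compound alone or with an antibacterial. MIC was the lowest concentration preventing visible growth; combination MIC of the antibacterial was read at each compound concentration.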

CC1(C)S[C@@H]2[C@H](NC(=O)[C@H](N)c3ccc(O)cc3)C(=O)N2[C@H]1C(=O)O [AMX, Amoxicillin]
MIC [1]: 128 µg/mL and >256 µg/mL
MIC ATB in combination [1]: 128 µg/mL
MIC ATB in combination ([1]; SMA UFR30, AF1 @ 4 μg/mL): 256 µg/mL
MIC ATB in combination ([1]; SMA UFR135, AF1 @ 4 μg/mL): 256 µg/mL
MIC ATB in combination ([1]; SMA UFR136, AF1 @ 4 μg/mL): 256 µg/mL
MIC ATB in combination ([1]; SMA UFR137, AF1 @ 4 μg/mL): 64 µg/mL
MIC ATB in combination ([1]; SMA UFR138, AF1 @ 4 μg/mL): 64 µg/mL
MIC ATB in combination ([1]; SMA UFR139, AF1 @ 4 μg/mL): 64 µg/mL
MIC ATB in combination ([1]; SMA UFR143, AF1 @ 4 μg/mL): 256 µg/mL
MIC ATB in combination ([1]; SMA UFR239, AF1 @ 4 μg/mL): 64 µg/mL
MIC ([1]; Serratia marcescens): > 128 µg/mL
MIC ([1]; Serratia marcescens, strain SMA UFR239 (ESAC), CLA @ 4 μg/ml+ ATB, read-out: MIC): 64 µg/mL
MIC ATB in combination [2]: 128 µg/mL
MIC ATB in combination ([2]; MMO 200321, AF1 @ 4 μg/mL): 256 µg/mL
MIC ATB in combination ([2]; MMO UFR240, AF1 @ 4 μg/mL): 32 µg/mL
MIC ATB in combination ([2]; MMO UFR243, AF1 @ 4 μg/mL): 64 µg/mL
MIC ATB in combination ([2]; MMO UFR244, AF1 @ 4 μg/mL): 64 µg/mL
MIC ATB in combination ([2]; MMO UFR245, AF1 @ 4 μg/mL): 64 µg/mL
MIC ATB in combination ([2]; MMO UFR246, AF1 @ 4 μg/mL): 64 µg/mL
MIC ATB in combination ([2]; MMO UFR247, AF1 @ 4 μg/mL): 32 µg/mL
MIC ([2]; Morganella morganii): > 128 µg/mL
MIC ([2]; Morganella morganii, strain MMO 200321 (TEM-1, CTX-M-15, OXA-1), ATB alone): > 256 µg/mL
MIC ([2]; Morganella morganii, strain MMO 200321 (TEM-1, CTX-M-15, OXA-1), CLA @ 4 μg/ml+ ATB): > 128 µg/mL
MIC ([2]; Morganella morganii, strain MMO UFR144 (TEM-1, CTX-M-15), ATB alone): > 128 µg/mL
MIC ([2]; Morganella morganii, strain MMO UFR144 (TEM-1, CTX-M-15), CLA @ 4 μg/ml+ ATB): > 128 µg/mL
MIC ([2]; Morganella morganii, strain MMO UFR240 (CTX-M-9), ATB alone): > 128 µg/mL
MIC ([2]; Morganella morganii, strain MMO UFR240 (CTX-M-9), CLA @ 4 μg/ml+ ATB): > 128 µg/mL
MIC ([2]; Morganella morganii, strain MMO UFR241 (TEM-1, CTX-M-15), ATB alone): > 128 µg/mL
MIC ([2]; Morganella morganii, strain MMO UFR241 (TEM-1, CTX-M-15), CLA @ 4 μg/ml+ ATB): > 128 µg/mL
MIC ([2]; Morganella morganii, strain MMO UFR242 (TEM-52), ATB alone): > 128 µg/mL
MIC ([2]; Morganella morganii, strain MMO UFR242 (TEM-52), CLA @ 4 μg/ml+ ATB): > 128 µg/mL
MIC [3]: 128 µg/mL and >256 µg/mL
MIC ATB in combination [3]: 128 µg/mL
MIC ATB in combination ([3]; CFR UFR11, AF1 @ 4 μg/mL): >512 µg/mL
MIC ATB in combination ([3]; CFR UFR83, AF1 @ 4 μg/mL): >512 µg/mL
MIC ATB in combination ([3]; CFR UFR146, AF1 @ 4 μg/mL): 256 µg/mL
MIC ATB in combination ([3]; CFR UFR248, AF1 @ 4 μg/mL): 64 µg/mL
MIC ATB in combination ([3]; CFR UFR249, AF1 @ 4 μg/mL): 256 µg/mL
MIC ATB in combination ([3]; CFR UFR250, AF1 @ 4 μg/mL): 32 µg/mL
MIC ([3]; Citrobacter freundii): > 128 µg/mL
MIC ATB in combination ([3]; strain CFR UFR253, antibacterial combined with AF1 @ 4 μg/mL): 4 µg/mL
MIC ATB in combination ([3]; strain CFR UFR254, antibacterial combined with AF1 @ 4 μg/mL): 4 µg/mL
MIC ATB in combination ([4]; PRE UFR99, AF1 @ 4 μg/mL): >512 µg/mL
MIC ([4]; Providencia rettgeri, ATB combined with CLA @ 4 μg/ml, strain PRE UFR236 (TEM-1, OXA-48)): > 128 µg/mL
MIC ([4]; Providencia rettgeri, strain PRE UFR99 (OXA-1, OXA-181), ATB alone): > 128 µg/mL
MIC ([4]; Providencia rettgeri, strain PRE UFR99 (OXA-1, OXA-181), CLA @ 4 μg/ml+ ATB): > 128 µg/mL
MIC ([4]; Providencia rettgeri, ATB alone, strain PRE UFR236 (TEM-1, OXA-48)): > 128 µg/mL
MIC ATB in combination ([4]; strain PRE UFR236, antibacterial combined with AF1 @ 4 μg/mL): 512 µg/mL
MIC [5]: 128 µg/mL
MIC ATB in combination ([5]; PMI UFR82): 8 µg/mL
MIC ATB in combination ([5]; PMI UFR120): <=0.25 μg/mL
MIC ATB in combination ([5]; PMI UFR121): <=0.25 μg/mL
MIC ATB in combination ([5]; PMI UFR122): <=0.25 μg/mL
MIC ATB in combination ([5]; PMI UFR123): <=0.25 μg/mL
MIC ATB in combination ([5]; PMI UFR124): <=0.25 μg/mL
MIC ATB in combination ([5]; PMI UFR125): <=0.25 μg/mL
MIC ATB in combination ([5]; PMI UFR126): 4 µg/mL
MIC ATB in combination ([5]; PMI UFR127): 4 µg/mL
MIC ATB in combination ([5]; PMI UFR129): 8 µg/mL
MIC ATB in combination ([5]; PMI UFR130): 8 µg/mL
MIC ATB in combination ([5]; PMI UFR237): 16 µg/mL
MIC ([5]; Proteus mirabilis): > 128 µg/mL
MIC ([5]; Proteus mirabilis, strain PMI UFR82 (CMY-2), ATB alone, read-out: MIC): 256 µg/mL
MIC ([5]; Proteus mirabilis, strain PMI UFR120 (TEM-1, SHV-11, CTX-M-14), CLA @ 4 μg/ml+ ATB, read-out: MIC): 8 µg/mL
MIC ([5]; Proteus mirabilis, strain PMI UFR121 (TEM-1, TEM-52), CLA @ 4 μg/ml+ ATB, read-out: MIC): 4 µg/mL
MIC ([5]; Proteus mirabilis, strain PMI UFR122 (TEM-1, CTX-M-15), CLA @ 4 μg/ml+ ATB, read-out: MIC): 8 µg/mL
MIC ([5]; Proteus mirabilis, strain PMI UFR123 (CTX-M-1), CLA @ 4 μg/ml+ ATB, read-out: MIC): 16 µg/mL
MIC ([5]; Proteus mirabilis, strain PMI UFR125 (CTX-M-71), CLA @ 4 μg/ml+ ATB, read-out: MIC): 4 µg/mL
MIC ([5]; Proteus mirabilis, strain PMI UFR126 (TEM-2, PER-1), CLA @ 4 μg/ml+ ATB, read-out: MIC): 16 µg/mL
MIC ([5]; Proteus mirabilis, strain PMI UFR127 (VEB-1), CLA @ 4 μg/ml+ ATB, read-out: MIC): 32 µg/mL
MIC ([5]; Proteus mirabilis, strain PMI UFR129 (TEM-1, VEB-6), CLA @ 4 μg/ml+ ATB, read-out: MIC): 2 µg/mL
MIC ([5]; Proteus mirabilis, strain PMI UFR237 (VEB-6), CLA @ 4 μg/ml+ ATB, read-out: MIC): 4 µg/mL

NC(=O)[C@@H]1CC[C@@H]2CN1C(=O)N2OC(F)(F)C(=O)[O-].[Na+] [EA1]
MIC ([1]; SMA UFR30, alone): >32 µg/mL
MIC ([1]; SMA UFR134, alone): >32 µg/mL
MIC ([1]; SMA UFR135, alone): >32 µg/mL
MIC ([1]; SMA UFR136, alone): >32 µg/mL
MIC ([1]; SMA UFR137, alone): >32 µg/mL
MIC ([1]; SMA UFR138, alone): >32 µg/mL
MIC ([1]; SMA UFR139, alone): >32 µg/mL
MIC ([1]; SMA UFR141, alone): >32 µg/mL
MIC ([1]; SMA UFR142, alone): >32 µg/mL
MIC ([1]; SMA UFR143, alone): 64 µg/mL
MIC ([1]; SMA UFR239, alone): >32 µg/mL
MIC ([1]; strain SMA UFR238, compound alone): >32 µg/mL
MIC ([2]; MMO 200321, alone): >32 µg/mL
MIC ([2]; MMO UFR144, alone): >32 µg/mL
MIC ([2]; MMO UFR240, alone): >32 µg/mL
MIC ([2]; MMO UFR241, alone): >32 µg/mL
MIC ([2]; MMO UFR242, alone): 128 µg/mL
MIC ([2]; MMO UFR243, alone): >32 µg/mL
MIC ([2]; MMO UFR244, alone): >32 µg/mL
MIC ([2]; MMO UFR245, alone): >32 µg/mL
MIC ([2]; MMO UFR246, alone): >32 µg/mL
MIC ([2]; MMO UFR247, alone): 64 µg/mL
MIC ([3]; CFR UFR10, alone): >32 µg/mL
MIC ([3]; CFR UFR11, alone): 16 µg/mL
MIC ([3]; CFR UFR83, alone): >32 µg/mL
MIC ([3]; CFR UFR146, alone): 64 µg/mL
MIC ([3]; CFR UFR248, alone): >32 µg/mL
MIC ([3]; CFR UFR249, alone): >32 µg/mL
MIC ([3]; CFR UFR250, alone): >32 µg/mL
MIC ([3]; strain CFR UFR253, compound alone): 32 µg/mL
MIC ([3]; strain CFR UFR254, compound alone): 32 µg/mL
MIC ([4]; PRE UFR99, alone): 32 µg/mL
MIC ([4]; strain PRE UFR236, compound alone): >32 µg/mL
MIC ([5]; PMI UFR82, alone): >32 µg/mL
MIC ([5]; PMI UFR120, alone): >32 µg/mL
MIC ([5]; PMI UFR121, alone): >32 µg/mL
MIC ([5]; PMI UFR122, alone): >32 µg/mL
MIC ([5]; PMI UFR123, alone): >32 µg/mL
MIC ([5]; PMI UFR124, alone): >32 µg/mL
MIC ([5]; PMI UFR125, alone): >32 µg/mL
MIC ([5]; PMI UFR126, alone): >32 µg/mL
MIC ([5]; PMI UFR127, alone): >32 µg/mL
MIC ([5]; PMI UFR129, alone): >32 µg/mL
MIC ([5]; PMI UFR130, alone): >32 µg/mL
MIC ([5]; PMI UFR237, alone): >32 µg/mL
